From ChEMBL document CHEMBL1146804, “Estrogen receptor ligands. Part 6: Synthesis and binding affinity of dihydrobenzodithiins” (Bioorg Med Chem Lett, 2004)

Key:
Estrogen receptor = molecular target: T1, Estrogen receptor (Homo sapiens, UniProt P03372)
T1 sequence (P03372 whole entry): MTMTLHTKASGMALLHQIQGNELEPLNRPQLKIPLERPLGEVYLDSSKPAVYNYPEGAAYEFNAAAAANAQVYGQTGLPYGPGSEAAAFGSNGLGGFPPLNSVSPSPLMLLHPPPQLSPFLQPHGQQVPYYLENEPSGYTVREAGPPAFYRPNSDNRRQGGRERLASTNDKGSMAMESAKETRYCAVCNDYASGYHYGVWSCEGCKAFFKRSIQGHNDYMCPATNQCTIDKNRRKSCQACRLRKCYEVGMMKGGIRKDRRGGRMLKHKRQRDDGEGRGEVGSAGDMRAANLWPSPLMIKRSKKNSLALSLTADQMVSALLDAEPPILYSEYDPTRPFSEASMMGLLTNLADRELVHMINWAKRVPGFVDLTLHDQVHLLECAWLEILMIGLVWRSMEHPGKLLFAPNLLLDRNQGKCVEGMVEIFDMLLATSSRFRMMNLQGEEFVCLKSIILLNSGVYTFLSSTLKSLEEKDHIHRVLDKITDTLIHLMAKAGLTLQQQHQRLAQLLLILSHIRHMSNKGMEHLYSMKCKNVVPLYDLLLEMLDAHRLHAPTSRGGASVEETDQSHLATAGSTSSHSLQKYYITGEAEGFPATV
Description: Binding affinity for human estrogen receptor alpha

Estrogen receptor beta = Estrogen receptor beta (Homo sapiens, UniProt Q92731)
Description: Binding affinity for human estrogen receptor beta

MCF7 [1] = assay: Inhibition of MCF-7 cancer cell proliferation; format: functional, cell-based; conditions: Homo sapiens
MCF7 [2] = assay: Inhibition of MCF-7 cancer cell proliferation; Average of 5 measurements; format: functional, cell-based; conditions: Homo sapiens
MCF7 [3] = assay: Inhibition of MCF-7 cancer cell proliferation; Average of 2 measurements; format: functional, cell-based; conditions: Homo sapiens
MCF7 [4] = assay: Inhibition of MCF-7 cancer cell proliferation; Average of 7 measurements; format: functional, cell-based; conditions: Homo sapiens

Estrogen receptor beta, sequence (Q92731 whole entry): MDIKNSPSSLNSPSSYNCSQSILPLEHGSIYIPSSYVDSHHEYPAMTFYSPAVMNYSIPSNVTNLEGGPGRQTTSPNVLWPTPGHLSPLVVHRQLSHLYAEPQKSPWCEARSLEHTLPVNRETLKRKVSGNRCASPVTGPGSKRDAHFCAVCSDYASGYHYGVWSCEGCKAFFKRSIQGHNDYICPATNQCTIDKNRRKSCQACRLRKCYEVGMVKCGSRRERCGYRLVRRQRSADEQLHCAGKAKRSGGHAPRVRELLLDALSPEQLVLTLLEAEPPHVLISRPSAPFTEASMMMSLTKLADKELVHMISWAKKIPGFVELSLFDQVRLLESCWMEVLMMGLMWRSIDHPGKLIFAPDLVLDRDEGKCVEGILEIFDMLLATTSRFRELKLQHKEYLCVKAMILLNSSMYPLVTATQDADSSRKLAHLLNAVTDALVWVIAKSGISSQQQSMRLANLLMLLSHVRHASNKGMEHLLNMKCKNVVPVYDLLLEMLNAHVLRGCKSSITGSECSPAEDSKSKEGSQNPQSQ

SMILES	IC50 (Estrogen receptor)	IC50 (Estrogen receptor beta)	IC50 (MCF7 [1])	IC50 (MCF7 [2])	IC50 (MCF7 [3])	IC50 (MCF7 [4])
Oc1ccc([C@H]2Sc3cc(O)ccc3S[C@H]2c2ccc(OCCN3CCCCC3)c(Br)c2)cc1	5 nM	111 nM	67 nM	–	–	–
Oc1cccc([C@H]2Sc3cc(O)ccc3O[C@H]2c2ccc(OCCN3CCCC3)cc2)c1	1 nM	38 nM	–	0.6 nM	–	–
Oc1cccc([C@H]2Sc3cc(O)ccc3S[C@H]2c2ccc(OCCN3CCCCC3)c(Br)c2)c1	4 nM	161 nM	152 nM	–	–	–
Oc1cccc([C@H]2Sc3cc(O)ccc3O[C@H]2c2ccc(OCCN3CCCCC3)cc2)c1	4 nM	–	–	–	0.4 nM	–
Oc1cccc([C@H]2Sc3cc(O)ccc3S[C@H]2c2ccc(OCCN3CCCCC3)cc2)c1	15 nM	583 nM	564 nM	–	–	–
Oc1ccc([C@H]2Sc3cc(O)ccc3S[C@H]2c2ccc(OCCN3CCCCC3)cc2)cc1	21 nM	326 nM	112 nM	–	–	–
Oc1ccc([C@H]2Sc3cc(O)ccc3S[C@H]2c2ccc(OCCN3CCCC3)cc2)cc1	18 nM	266 nM	123 nM	–	–	–
Oc1ccc([C@H]2Sc3cc(O)ccc3O[C@H]2c2ccc(OCCN3CCCCC3)cc2)cc1	–	–	–	–	–	3 nM
Oc1ccc([C@H]2Sc3cc(O)ccc3S[C@H]2c2ccc(OCCN3CCCC3)c(Br)c2)cc1	4 nM	87 nM	114 nM	–	–	–
